Test results: patent US12391643B2, “Substituted amino-thiol and amino-disulfide compounds, and uses thereof” (The Regents of the University of California, priority 2019, dated 2025)

How the values were obtained:
[1] = tested on: C57BL/6 male mice on CDAHFD diet; assay: In vivo NASH model, treatment phase (8 weeks CDAHFD, then 2 weeks daily gavage); settings: for Fatty deposits / fat globules in liver, H&E staining: 200 mg/kg/day
Experimental: Liver Inflammatory Cells. CD11b stains macrophages and microglia. CD11b staining of liver tissue was taken after 10 weeks of CDAHFD in three groups of mice. […] At 8 weeks, treatment group 2 (“C2”) mice started gavage feeding with D2-Cystamine at 200 mg/kg/day once daily gavage, and treatment group 3 (“C3”) mice received D4-Cystamine at 200 mg/kg/day by once daily gavage.
In vivo NASH Models. NASH models from normal C57BL/6 male mice on CDAHFD diet (choline deficient, L-amino acid defined, high fat diet with restricted amount of methionine) were used. Two deuterated cystamine molecules were tested:
Two phase study was performed: (1) A prevention and (2) a treatment phase. 48 Mice were separated into nine groups of mice as described below. Histology at end of each study was performed looking for specific features of NASH (steatohepatitis, ballooning, fibrosis). The primary endpoint was plasma ALT measurement. Gene expression studies for fibrosis, inflammation were also performed.
Prevention Phase. Group 1: Control mice on CDAHFD for 8 weeks. Blood drawn at 0, 4, and 8 weeks. Group 2: Mice on CDAHFD plus D2 at 200 mg/kg/day for 8 weeks. Blood drawn at 0, 4, and 8 weeks. Group 3: Mice on CDAHFD plus D4 at 200 mg/kg/day for 8 weeks. Blood drawn at 0, 4, and 8 weeks. Group 4: Control mice (n=4) continue on CDAHFD for 2 weeks. Blood at baseline and at 2 weeks. Liver histology at 2 weeks. Group 5: Mice (n=4) on CDAHFD for 2 weeks plus D2 at 200 mg/kg/day administered via daily gavage. Blood at 0 and 2 weeks and histology at 2 weeks. Group 6: Mice (n=4) on CDAHFD for 2 weeks plus D4 at 200 mg/kg/day administered via daily gavage. Blood at 0 and 2 weeks and histology at 2 weeks.
Treatment Study Results. Groups 4, 5 and 6 mice received 8 weeks of CDAHDF diet before beginning treatment with deuterated compounds of the disclosure. During the treatment phase the mice continued to receive CDAHDF diet. Four mice were set in each group: control (C1) not receiving any drug; treatment (C2) receiving 200 mg/kg of cystamine D2 by once daily gavage; and treatment (C3) receiving 200 mg/kg cystamine D4 by once daily gavage.

[2] = Pharmacokinetics of cystamine and D4-cystamine in rats (monomer measured in plasma); assay type: in vivo, Sprague Dawley rats
Experimental: Pharmacokinetics of Cystamine in Rats.
In the experimental study 5 Sprague Dawley rats were used: 2 rats were used for control (non-deuterated cystamine) and 3 rats were used for the study compound (D4 cystamine).
Blood was sampled at 0, 20 min, 40 min, 1, 2, 4 and 6 hours (7 total samples per rat). Approximately 160 μl of whole blood was collected into an EDTA retro-orbital blood collection tube and briefly mixed to insure uniform mixing of EDTA. The blood was quickly transferred into a clean ependorf tube containing 40 μl of fresh 150 mM NEM, mixed and incubated at room temperature for 10 minutes. The Eppendorf tube was centrifuged at 3000 rmp for 5 minute sto pellet RBC and collect plasma into a fresh Eppendorf tube. The volume of the plasma was measured by pipette. Formic acid was added to the plasma to a concentration of 1% and mixed.

[3] = 200 mg/kg once daily gavage, 2 weeks

SMILES: [2H]C([2H])(CN)SSC([2H])([2H])CN [D4-Cystamine, 2,2′-disulfanediylbis(ethan-2,2-d2-1-aminium) chloride]
- ALT versus untreated control group [1, 3]: significantly lower
- Ratio of body weight to liver weight (BW/LW) at end of study versus control [1, 3]: statistically significant
- Hepatic fibrosis, Sirius Red staining of liver sections ([1]; 200 mg/kg once daily gavage, 2 weeks, listed as D4): significant reduction in the amount of positive liver staining
- Hepatic fibrosis, Sirius Red staining of liver sections ([1]; 200 mg/kg once daily gavage, 2 weeks, listed as cystamine D4): very significant reduction in hepatic fibrosis
- Number of CD11b positive cells in liver tissue versus control group ([1]; 200 mg/kg/day once daily gavage, 2 weeks): statistically significant reduction
- Fatty deposits / fat globules in liver, H&E staining ([1]; 2 weeks): reduction in fatty globules
- Fatty deposits / fat globules in liver, H&E staining ([1]; 2 weeks, listed as D4): reduced fatty deposits compared to control
- Pericentral fibrosis in liver ([1]; Sirius Red staining, 2 weeks): less pericentral fibrosis
- Collagen 1 expression, qPCR, versus control ([1]; liver, 2 weeks of treatment): significant reduction
- AUC relative to non-deuterated cystamine [2]: at least 1.6 ×
- Cmax relative to non-deuterated cystamine [2]: ~2 ×
- AUC of derived monomer, comparison in words ([2]; vs cystamine derived cysteamine): much higher
